Measurements published in patent US20010044416A1 (priority 2000, published 2001).

What was measured:
[1] = tested on: HBsAg-specific antibodies (anti-HBs); parameters: species or system BALB/c mice; conditions: mouse, in vivo, po
[2] = tested on: HBsAg-specific antibodies (anti-HBs); parameters: species or system BALB/c mice; conditions: mouse, in vivo
[3] = tested on: HBsAg-specific antibodies; parameters: species or system BALB/c mice; conditions: mouse, in vivo, po
[4] = in vivo; cited from earlier work

With “5′-TCCAGGACTTCTCTCAGGTT-3′ [non-CpG ODN #1982]” the “HBsAg-specific IgG titers, non-CpG ODN versus equivalent dose of CpG ODN” value [1] was “no significant difference”, the “anti-HBs IgG titers in plasma” value [1] was “much higher levels” and the “antibody isotypes (IgG1 Th2-like, IgG2a Th1-like) as indication of Th-bias” value (“antibody isotypes” below) [1] was “predominance of IgG1”. The “enhancement of immune responses (anti-HBs) with IM delivery” value [2] was “not” and the “HBsAg-specific IgG in plasma” value [3] was “now detected”.
In the case of Cholera toxin [CT], the “anti-HBs IgG titers in plasma” value [1] is given as “much higher levels”, the “antibody isotypes” value [1] is given as “predominance of IgG1” and the “dose causing severe diarrhea” value [4] is given as 1 to 5 µg.
For TCCATGACGTTCCTGACGTT [CpG ODN #1826], the “anti-HBs IgG titers in plasma” value [1] was “much higher levels”, the “antibody isotypes” value [1] was “equally mixed Th1/Th2 response” and the “enhancement of immune responses (anti-HBs) with IM delivery” value [2] was “enhancement of immune responses”. The “HBsAg-specific IgG in plasma” value [3] was “now detected”.
